Test results from US11352350B2, “IRAK degraders and uses thereof” (Kymera Therapeutics, Inc., priority 2018, dated 2022).

Legend:
IRAK4 [1] = target: T1, IRAK4 (Homo sapiens (Human), UniProt Q9NWZ3); test: hPBMC IRAK4 degradation flow assay; format: cell-based; conditions: hPBMC monocyte
Summary of the method: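 Thawed human PBMCs treated with 10-point, 5-fold compound dilutions (0.1% DMSO) at 37° C. for 20 hours or 4 hours. IRAK4 measured by flow MFI in CD14+ monocytes and CD14− lymphocytes, normalized to DMSO and 10 μM 20-hour control; DC50 and max degradation from 4-parameter logistic fit.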

IRAK4 [2] = target: T1, IRAK4; test: IRAK4 MSD degradation in OCI-LY10; format: cell-based; conditions: OCI-LY10, 4 hrs
Summary of the method: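 OCI-LY10 cells treated with 8-point 1:3 dilutions (top 1 to 10 μM final) for 4 to 24 h at 37° C. Lysate IRAK4 measured by MSD sandwich immunoassay (2H9 capture, Y279 detection, SULFO-TAG anti-rabbit). DC50 from three-parameter logistic fit.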

OCI-LY10 = test: CTG Cell Viability Assay - OCI-LY10; format: cell-based, human; conditions: Homo sapiens, OCI-Ly10, 96 h, OCI-LY10, 4 days; read-out: CTG Cell Viability Assay - OCI-LY10: Average external-IC50
Summary of the method: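 OCI-LY10 cells exposed to 9-dose, 1:3 dilutions from 10 μM top (0.2% DMSO) for 4 days at 37° C, 5% CO2. Viability by CellTiter-Glo luminescence; IC50 from three-parameter logistic fit.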

IL-6 = IL-6 secretion in hPBMC using R848 stimulation; format: cell-based, human; conditions: Homo sapiens, 20 h, hPBMC, R848 as stim, t = 20 h
[3] = 20 hrs, read-out: IRAK4 degradation in hPBMC monocyte: DC50
[4] = read-out: IRAK4 MSD degradation in OCI-LY10 at 4 hrs: DC50
[5] = 20 hr, flow assay, read-out: IRAK4 degradation in hPBMC monocyte at 20 hr: Average external Abs DC50
[6] = MSD, read-out: IRAK4 MSD degradation in OCI-LY10 at 4 hrs: Average external-Abs DC50

T1 sequence (Q9NWZ3 whole entry): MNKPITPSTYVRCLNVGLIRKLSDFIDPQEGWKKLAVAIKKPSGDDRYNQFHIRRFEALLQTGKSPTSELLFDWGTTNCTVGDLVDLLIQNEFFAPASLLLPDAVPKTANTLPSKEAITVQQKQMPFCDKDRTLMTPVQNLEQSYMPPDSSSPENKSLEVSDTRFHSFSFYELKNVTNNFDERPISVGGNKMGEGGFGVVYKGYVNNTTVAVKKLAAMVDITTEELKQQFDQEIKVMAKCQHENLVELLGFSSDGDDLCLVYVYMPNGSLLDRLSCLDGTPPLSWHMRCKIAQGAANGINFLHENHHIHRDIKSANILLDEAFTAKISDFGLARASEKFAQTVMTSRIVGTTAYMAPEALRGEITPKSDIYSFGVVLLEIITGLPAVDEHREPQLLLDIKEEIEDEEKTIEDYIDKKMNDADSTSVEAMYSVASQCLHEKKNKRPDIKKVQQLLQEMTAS

Compound | DC50 (IRAK4 [1]; [3]) | DC50 (IRAK4 [2]; [4]) | IC50 (OCI-LY10) | IC50 (IL-6) | DC50 (IRAK4 [1]; [5]) | DC50 (IRAK4 [2]; [6])
Cn1c(=O)n(C2CCC(=O)NC2=O)c2cccc(CC[C@@H]3CN(C[C@H]4CC[C@H](C5N=C(NC(=O)c6cnn7ccc(N8CCCOCC8)nc67)C(C(F)F)=N5)CC4)CCO3)c21 (stereo partly shown) [I-514] | < 10 nM | < 10 nM | > 1000 nM | < 1 nM |  | 
Cn1c(=O)n(C2CCC(=O)NC2=O)c2cccc(CCN3CC4(CCN(C(=O)[C@H]5CC[C@H](n6cc(NC(=O)c7cnn8ccc(N9C[C@H]%10C[C@@H]9CO%10)nc78)c(C(F)F)n6)CC5)CC4)C3)c21 (stereo partly shown) [I-420] |  |  | < 50 nM | < 1 nM | < 10 nM | < 10 nM
Cn1c(=O)n(C2CCC(=O)NC2=O)c2cccc(CCCN3CCC4(CC3)CN(C(=O)[C@H]3CC[C@H](n5cc(NC(=O)c6cnn7ccc(N8C[C@H]9C[C@@H]8CO9)nc67)c(C(F)F)n5)CC3)C4)c21 (stereo partly shown) [I-422] |  |  | > 1000 nM | < 1 nM | < 10 nM | 10 to 100 nM
O=C1CCC(n2c3ccccc3c3c(CCCN4CC5(CCN(C(=O)[C@H]6CC[C@H](n7cc(NC(=O)c8cnn9ccc(N%10C[C@H]%11C[C@@H]%10CO%11)nc89)c(C(F)F)n7)CC6)CC5)C4)ccnc32)C(=O)N1 (stereo partly shown) [I-447] | < 10 nM | 10 to 100 nM | > 1000 nM | 1 to 10 nM |  | 
Cn1c(=O)n(C2CCC(=O)NC2=O)c2cccc(CCCC3CCN(C[C@H]4CC[C@H](n5cc(NC(=O)c6cnn7ccc(N8C[C@H]9C[C@@H]8CO9)nc67)c(C(F)F)n5)CC4)CC3)c21 (stereo partly shown) [I-416] |  |  | > 1000 nM | < 1 nM | < 10 nM | < 10 nM
Cn1c(=O)n(C2CCC(=O)NC2=O)c2cccc(CCCCC3CCN(C(=O)c4ccc(-n5cc(NC(=O)c6cnn7ccc(N8C[C@H]9C[C@@H]8CO9)nc67)c(C(F)F)n5)cc4)CC3)c21 (stereo partly shown) [I-426] |  |  | > 1000 nM | 1 to 10 nM | < 10 nM | 100 to 1000 nM
Cn1c(=O)n(C2CCC(=O)NC2=O)c2cccc(CCC3CCN(c4ccc(CN5CCC(n6cc(NC(=O)c7cnn8ccc(N9C[C@H]%10C[C@@H]9CO%10)nc78)c(C(F)F)n6)CC5)cc4)CC3)c21 (stereo partly shown) [I-517] | < 10 nM | 10 to 100 nM | > 1000 nM | 1 to 10 nM |  | 
Cn1c(=O)n(C2CCC(=O)NC2=O)c2cccc(CCC(=O)N3CCC4(CC3)CN(C[C@H]3CC[C@H](n5cc(NC(=O)c6cnn7ccc(N8C[C@H]9C[C@@H]8CO9)nc67)c(C(F)F)n5)CC3)C4)c21 (stereo partly shown) [I-414] |  |  | > 1000 nM | < 1 nM | < 10 nM | < 10 nM
CN(CCCOCCCc1cccc2c1n(C)c(=O)n2C1CCC(=O)NC1=O)C[C@H]1CC[C@H](n2cc(NC(=O)c3cnn4ccc(N5CCCCC5)nc34)c(C(F)F)n2)CC1 (stereo partly shown) [I-419] |  |  | > 1000 nM | 1 to 10 nM | < 10 nM | 10 to 100 nM
Cn1c(=O)n(C2CCC(=O)NC2=O)c2cccc(C#CCN3CCC4(CC3)CN(C(=O)[C@H]3CC[C@H](n5cc(NC(=O)c6cnn7ccc(N8C[C@H]9C[C@@H]8CO9)nc67)c(C(F)F)n5)CC3)C4)c21 (stereo partly shown) [I-418] |  |  | > 1000 nM | 1 to 10 nM | 10 to 100 nM | 10 to 100 nM
Cn1c(=O)n(C2CCC(=O)NC2=O)c2cccc(CCCOC[C@@H]3CN(C[C@H]4CC[C@H](n5cc(NC(=O)c6cnn7ccc(N8CCOCC8)nc67)c(C(F)F)n5)CC4)CCO3)c21 (stereo partly shown) [I-448] | < 10 nM | 10 to 100 nM | > 1000 nM | 1 to 10 nM |  | 
Cn1c(=O)n(C2CCC(=O)NC2=O)c2cccc(C#CCC3CCN(C[C@H]4CC[C@H](C5N=C(NC(=O)c6cnn7ccc(N8CCOC(C)(C)C8)cc67)C(C(F)F)=N5)CC4)CC3)c21 (stereo partly shown) [I-532] | 10 to 100 nM | 10 to 100 nM | > 1000 nM | 1 to 10 nM |  | 
Cn1c(=O)n(C2CCC(=O)NC2=O)c2cccc(CC[C@H]3CN(C[C@H]4CC[C@H](n5cc(NC(=O)c6cnn7ccc(N8CCCOCC8)nc67)c(C(F)F)n5)CC4)CCO3)c21 (stereo partly shown) [I-516] | < 10 nM | 10 to 100 nM | > 1000 nM | 1 to 10 nM |  | 
